In US8765783B2, “Pharmaceutical composition for treatment of disease due to vascular constriction or vasodilation” (Ono Pharmaceuticals Co., Ltd., priority 2002, dated 2014):
Entries after “also recorded” stand apart in the source; their conditions may differ.

Experiments:
[1] = test system: rat removed thoracic aorta; assay: Vasoconstrictive action of rat removed thoracic aorta by S1P or phenylephrine; conditions: for constriction of rat thoracic aorta: phenylephrine 10 μM (positive control), S1P 10 μM
Excerpt: The removed thoracic aorta of euthanized SD rat (7-13 weeks old) was immersed in Krebs-Henseleit solution [112 mmol/L sodium chloride, 5.9 mmol/L potassium chloride, 2.0 mmol/L calcium chloride, 1.2 mmol/L magnesium chloride, 1.2 mmol/L monobasic sodium phosphate, 25.0 mmol/L sodium hydrogen carbonate NaHCO3, 11.5 mmol/L glucose, saturated by mixed gas (95% O2+5% CO2)]. They were divided by 3-4 mm with ophthalmic scissors and made as vortical samples. Made samples were hung in magnus tube (volume: 10 mL) filled with Krebs-Henseleit solution [37±1° C., aerated with mixed gas (95% O2+5% CO2)] using a hook. Next, they were loaded with 0.5 g resting tension stabilized for about 60 minutes, then constrictive movement was recorded on a recorder through strain compression amplifier (AP-601G, Nihon Kohden) from Force displacement transducer (FD pickup TB-611T). Sympathetic nerve stimulant, phenylephrine, (10 μM) is used as positive control for constriction action. After that, S1P (10 μM) adding, vasoconstrictive action was measured. As a result, phenylephrine and S1P constricted rat thoracic aorta.

[2] = test system: canine removed basilar artery; assay: Vasoconstrictor action of canine removed basilar artery by S1P; parameters: species or system canine (beagle); conditions: for constriction of canine basilar arteries: serotonin 1 μM (positive control), S1P 10 μM; for inhibitory effect on vasoconstrictive action of canine basilar artery by S1P: 10 μM test compound added 20 minutes after S1P (10 μM)
Excerpt: (§1) The removed basilar arteries of euthanized male beagle (12 months old) was immersed in Krebs-Henseleit solution [112 mmol/L sodium chloride, 5.9 mmol/L potassium chloride, 2.0 mmol/L calcium chloride, 1.2 mmol/L magnesium chloride, 1.2 mmol/L monobasic sodium phosphate, 25.0 mmol/L sodium hydrogen carbonate NaHCO3, 11.5 mmol/L glucose, saturated by mixed gas (95% O2+5% CO2)]. They were divided by 3-4 mm with ophthalmic scissors and made as ringed samples. Made ringed tissues were hung in magnus tube (volume: 10 mL) filled with Krebs-Henseleit solution [37±1° C., aerated with mixed gas (95% O2+5% CO2)] using a hook. Next, they were loaded with 1 g resting tension stabilized for about 60 minutes, then constrictive movement was recorded on a recorder through strain compression amplifier (AP-601G, Nihon Kohden) from Force displacement transducer (FD pickup TB-611T). Serotonin (1 μM) is used as positive control for constriction action. After that, S1P (10 μM) adding, vasoconstrictive action was measured. As a result, serotonin and S1P constricted basilar arteries.
As a result, test compounds having EDG-5 antagonist activity inhibited vasoconstrictive action by S1P.

[3] = test system: canine removed renal artery; assay: Vasoconstrictor action of canine renal artery by S1P; parameters: species or system canine (beagle); conditions: for constriction of canine renal arteries: serotonin 1 μM (positive control), S1P 10 μM; for inhibitory effect on vasoconstrictive action of canine renal arteries by S1P: 10 μM test compound added 40 minutes after S1P
Excerpt: as §1, with “renal” for “basilar”

human EDG-5 = biological target: T1, human EDG-5 (Homo sapiens, UniProt O95136); assay: Antagonistic activity for EDG-5 by monitoring concentration change of intracellular calcium ion; format: cell-based; conditions: CHO cells overexpressing human EDG-5; S1P 100 nM
T1 construct: expressed in transfected cells; host or cells: CHO cells
T1 sequence (O95136 whole entry): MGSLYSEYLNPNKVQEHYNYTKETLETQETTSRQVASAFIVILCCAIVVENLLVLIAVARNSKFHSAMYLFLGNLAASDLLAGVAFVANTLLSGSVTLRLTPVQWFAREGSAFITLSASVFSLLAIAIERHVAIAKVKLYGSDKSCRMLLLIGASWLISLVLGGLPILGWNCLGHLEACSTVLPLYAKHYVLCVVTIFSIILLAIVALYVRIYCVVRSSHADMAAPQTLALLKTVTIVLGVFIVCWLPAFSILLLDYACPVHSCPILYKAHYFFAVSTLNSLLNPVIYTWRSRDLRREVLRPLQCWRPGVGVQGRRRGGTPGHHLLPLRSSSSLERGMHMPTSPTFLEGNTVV
Experimental: Chinese hamster ovary (CHO) cells overexpressed human EDG-5 gene were cultured in Ham's F12 medium (GIBCO BRL) containing 10% FBS (fetal bovine serum), penicillin/streptomycin, and blasticidin (5 μg/ml). Cultured cells were incubated in a Fura2 (5 μM)-AM solution [Ham's F12 medium containing FBS (10%), HEPES buffer (20 mM, pH7.4), and probenecid (2.5 mM)] at 37° C. for 60 minutes. Then they were washed once with a Hank's solution (2.5 mM) containing probenecid and immersed into the same solution. A plate was set on a fluorescent drug screening system, and the concentration of intracellular calcium ion was measured for 30 seconds with no stimulation. A solution of a compound (dimethyl sulfoxide (DMSO) solution of 1 nM to 10 μM at the final concentration) to be tested was added. After lapse of 5 minutes, S1P (final concentration: 100 nM) was added, the concentration of intracellular calcium ion before and after the addition was measured every 3 seconds (excitation wave length: 340 nm and 380 nm; fluorescent wave length: 500 nm). […]

human EDG-1 = biological target: T2, human EDG-1 (Homo sapiens, UniProt P21453); assay: Antagonist evaluation for EDG-1, intracellular calcium ion; format: cell-based; conditions: cells overexpressing human EDG-1
T2 construct: expressed in transfected cells
T2 sequence (P21453 whole entry): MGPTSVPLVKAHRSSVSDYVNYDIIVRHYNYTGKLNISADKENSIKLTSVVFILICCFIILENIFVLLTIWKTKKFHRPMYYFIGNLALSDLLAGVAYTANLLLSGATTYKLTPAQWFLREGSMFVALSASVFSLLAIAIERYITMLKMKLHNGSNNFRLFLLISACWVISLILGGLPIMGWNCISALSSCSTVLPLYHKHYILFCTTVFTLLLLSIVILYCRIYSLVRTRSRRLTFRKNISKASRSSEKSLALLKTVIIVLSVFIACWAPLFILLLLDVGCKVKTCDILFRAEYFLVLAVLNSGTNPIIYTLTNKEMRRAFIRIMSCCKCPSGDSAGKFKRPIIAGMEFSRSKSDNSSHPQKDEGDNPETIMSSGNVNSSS

[4] = test system: removed rabbit portal vein/mesenteric vein; assay: Constriction of the removed rabbit vein by S1P
Experimental: The portal vein/mesenteric vein was removed form male rabbit (NZ White, about 2 kg) under anesthesia and vertical sample of width 2-3 mm and length 3-4 mm was made. Made samples were hung in magnus tube (volume: 5 mL) filled with Krebs-Henseleit solution (37° C.) using a hook. They were loaded with 0.5 g resting tension stabilized for about 60 minutes, then constrictive movement was recorded on a recorder (linear recorder WR3320: Graphtec Corp.) through strain compression amplifier (AP-601G, Nihon Kohden) from Force displacement transducer (FD pickup TB-611T).

[5] = test system: rabbit vasoconstrictive action by S1P; assay: Rabbit vasoconstrictive action by S1P
human EDG-3 = biological target: T3, human EDG-3 (Homo sapiens, UniProt Q99500); assay: Antagonist evaluation for EDG-3, intracellular calcium ion; format: cell-based; conditions: cells overexpressing human EDG-3
T3 construct: expressed in transfected cells
T3 sequence (Q99500 whole entry): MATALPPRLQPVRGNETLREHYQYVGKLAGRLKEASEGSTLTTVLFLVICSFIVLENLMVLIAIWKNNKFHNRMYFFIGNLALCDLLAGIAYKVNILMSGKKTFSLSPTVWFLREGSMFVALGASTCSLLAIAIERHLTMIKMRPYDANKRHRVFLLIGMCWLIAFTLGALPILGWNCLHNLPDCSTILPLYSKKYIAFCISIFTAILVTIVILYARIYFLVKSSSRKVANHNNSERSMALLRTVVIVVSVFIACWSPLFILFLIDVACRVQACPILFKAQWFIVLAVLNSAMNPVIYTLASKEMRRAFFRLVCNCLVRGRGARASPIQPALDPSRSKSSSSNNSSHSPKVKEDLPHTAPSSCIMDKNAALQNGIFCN

[6] = test system: rat removed basilar artery; assay: Vasoconstrictor action of rat removed basilar artery; conditions: 3 μM (FIG. 3, FIG. 4)
Experimental: Basilar arteries were removed from male rat (CD(SD)IGS, male, Charles River Japan, Inc., 8 weeks old-10 weeks old, 350-450 g) and quickly immersed in cooled Krebs-Henseleit solution. Removed basilar arteries were divided by about 3 mm width with ophthalmic scissors and made as ringed samples. Samples hung in micro tissue organ bath (MTOB-1: Preimetech Corp.) filled with Krebs-Henseleit solution (37° C.). They were loaded with about 0.2 g resting tension stabilized for about 60 minutes, and then constrictive movement was recorded on a recorder (linearcoda WR3320: Graphtec Corp.) through strain compression amplifier (AP-601G, Nihon Kohden) from micro tissue organ bath.

removed rat heart = assay: Removed rat heart (Langendorff heart); conditions: Langendorff heart mode; for contractive force of heart muscle: EDG-5 antagonist
Excerpt: Rat (CD(SD)IGS, male, Charles River Japan Inc., 8 weeks old-10 weeks old, 300-450 g) was anesthetized by diethylether, opened the abdominal cavity, injected intravenously with heparin and then, exsanguinated to death. The heart was quickly removed by opening the chest cavity and the removed heart was immersed into cooled Krebs-Henseleit solution. The tissues were trimmed away under the cooling, aortic arches were inserted into the heart functional measuring equipment and fixed with sutures without leaking out. The rat heart function was measured using the heart functional measuring equipment (model IPH-W2, Labo-support). The equipment was used in the Langendorff Heart mode (non-working heart mode) and load was 68-70 mmHg. […] Catheter filled with physiological saline was inserted into the left ventricle, the catheter was connected to the piezotransducer (DX-100, Nihon Kohden) and the left ventricle pressure (LVP) was measured through strain compression amplifier (AP-601G, Nihon Kohden). Heart rate was calculated using LVP data with the heart rate measuring equipment (AT-601G, Nihon Kohden) and dLVP/dt was calculated with differential processor (EQ-641G, Nihon Kohden). Probes of electromagnetic flowmeter (model FF-020T, inside diameter 2 mm, Nihon Kohden) were set on the way to the passage of nutrient solution and the flow rate of nutrient solution (corresponding the blood flow rate of coronary artery) was measured using electromagnetic flowmeter (MFV-3100, Nihon Kohden). Administration of S1P and the compounds was performed by injection of dilution with nutrient solution into the passage of nutrient solution using infusion pump. The injection rate of drug solution was set as the flow rate of nutrient solution before starting of administration. […] Using the above mentioned model, effect of EDG-5 antagonist on heart function was examined. […] EDG-5 antagonist, the compound (1), the compound (2) and the compound (3) increased the flow rate of nutrient solution. In addition, they increased contractive force of heart muscle at the same time. […] It was considered that S1P had no direct chronotropic action and inotropic action on pacemaker and heart muscle and S1P had lowering effect on heart function by contracting the coronary blood vessels and ischemia.

rabbit thoracic aorta = assay: Vasoconstrictive action of rabbit thoracic aorta by S1P
canine thoracic aorta = assay: Vasoconstrictive action of canine thoracic aorta by S1P
SD rat = assay: Increase of rat blood pressure by S1P; format: in vivo; conditions: anesthetized male SD rat
Experimental: Male SD Rat (8 weeks old-10 weeks old) was anesthetized by injection of pentobarbital sodium (50 mg/mL/kg), after midline incision in the cervical region, trachea was exposed by exfoliation of tracheal muscle layer and cannula made of polyethylene was inserted into trachea. Next, catheter made of polyethylene was inserted into the common carotid artery and the common jugular vein. Catheter inserted into the common carotid artery was connected to the piezotransducer and the blood pressure was recorded on the recorder through strain compression amplifier. After the above mentioned operation was finished, in the case of the spinal chord was broken, the spinal chord was broken by insertion of stainless pole into the spinal chord cavity. After the spinal chord was broken, tracheal cannula was immediately connected into the artificial breathing device for small animals and artificial ventilation was performed under the conditions of a ventilatory volume 6 mL/kg and velocity 60 times/min. After then, S1P was administered and we confirmed blood pressure was increased. […] As a result, the compound (3) inhibited the increase of blood pressure by S1P.

| Compound | constriction of rat thoracic aorta [1] | constriction of canine basilar arteries [2] | constriction of canine renal arteries [3] | IC50 (human EDG-5) [µM] | inhibitory effect on vasoconstrictive action of canine basilar artery by S1P [2] | IC50 (human EDG-1) [µM] | inhibitory effect on vasoconstrictive action of canine renal arteries by S1P [3] | inhibitory effect on rabbit vasoconstrictive action by S1P [5] | IC50 (human EDG-3) [µM] | flow rate of nutrient solution (corresponding the blood flow rate of coronary artery) (removed rat heart) | contractive force of heart muscle (removed rat heart) | further results |
| --- | --- | --- | --- | --- | --- | --- | --- | --- | --- | --- | --- | --- |
| CNC[C@H](O)c1cccc(O)c1 [phenylephrine] | constricted | – | – | – | – | – | – | – | – | – | – | – |
| NCCc1c[nH]c2ccc(O)cc12 [serotonin] | – | constricted | constricted | – | – | – | – | – | – | – | – | – |
| O=C(Nc1cccc(C(F)(F)F)c1)N1CCC(O)(c2ccc(Br)cc2)CC1 [compound (2), 4-(4-bromophenyl)-4-hydroxy-N-(3-(trifluoromethyl)phenyl)-1-piperidinecarboxamide] | – | – | – | 0.4 | inhibited; also recorded: suppression | > 10 | inhibited; also recorded: suppression | showed inhibitory effect | > 10 | increased | increased | inhibitory effect on contraction of vein by S1P [4]: inhibitory effect; also recorded: suppression; inhibitory effect on vasoconstrictor action of rat removed basilar artery by S1P [6]: inhibitory effect; also recorded: suppression |
| Cc1nn(C)c2nc(NNC(=O)Nc3c(Cl)cncc3Cl)cc(C(C)C)c12 [compound (1), N-(1H-1,3-dimethyl-4-isopropylpyrazolo[3,4-b]pyridin-6-yl)amino-N′-(3,5-dichloropyridin-4-yl)urea] | – | – | – | 0.5 | inhibited; also recorded: suppression | > 10 | inhibited; also recorded: suppression | showed inhibitory effect | > 10 | increased | increased | inhibitory effect on vasoconstrictive action of rabbit thoracic aorta by S1P (rabbit thoracic aorta): showed inhibitory effect; inhibition of vasoconstrictive action of rat thoracic aorta by S1P ([1]; 10 μM test compound added an hour after S1P (10 μM)): specifically inhibited; also recorded: suppression; inhibition of vasoconstrictive action of rat thoracic aorta by phenylephrine ([1]; 10 μM test compound, phenylephrine 10 μM): did not inhibit; also recorded: not showing the suppression; inhibitory effect on vasoconstrictive action of canine thoracic aorta by S1P (canine thoracic aorta): showed inhibitory effect |
| CCCCCCCCCCCCC/C=C/[C@@H](O)[C@@H](N)COP(=O)(O)O [Example S1P, (2S,3R,4E)-2-amino-3-hydroxyoctadeca-4-enyl-1-phosphate] | constricted | constricted | constricted | – | – | – | – | – | – | – | – | effect of S1P on rat blood pressure (SD rat): increased; effect of S1P on contractive force of heart muscle (removed rat heart): dose-dependently decreased |
